Reference: paper PMC8659031, “Substituted Aryl Benzylamines as Potent and Selective Inhibitors of 17β-Hydroxysteroid Dehydrogenase Type 3” (Molecules, 2021)
Where two headings read alike, the source gives them in different places.

Legend:
[1] = target: T1, 17β-HSD Type 1 (Homo sapiens, UniProt P14061); assay: 17β-HSD1 activity assay in T-47D breast cancer cells (estrone to estradiol); type: cell-based; details: T47D, T-47D cells; for inhibition at 10 µM: tested at 10 μM
T1 construct: endogenous in cells; host or cells: T-47D breast cancer cells
T1 sequence (P14061 1-328): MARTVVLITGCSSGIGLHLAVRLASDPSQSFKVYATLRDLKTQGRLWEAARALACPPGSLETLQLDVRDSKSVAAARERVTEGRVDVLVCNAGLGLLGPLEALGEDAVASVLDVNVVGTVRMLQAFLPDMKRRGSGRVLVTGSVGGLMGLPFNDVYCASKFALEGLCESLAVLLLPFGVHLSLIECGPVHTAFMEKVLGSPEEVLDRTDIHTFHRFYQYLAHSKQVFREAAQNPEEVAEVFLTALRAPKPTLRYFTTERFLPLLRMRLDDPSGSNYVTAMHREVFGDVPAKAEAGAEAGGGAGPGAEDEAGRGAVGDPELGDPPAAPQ
Experimental: The assay is of a similar format to the 17β-HSD Type 3 TLC assay. T-47D breast cancer cells, which express a high ratio of 17β-HSD Type 1 to 17β-HSD Type 2, were used to test the conversion of labelled estrone to estradiol in the presence and absence of the potential inhibitors. The cells were incubated with [^3H]-estrone at a concentration of 2 nM, in the absence or presence of the inhibitors (10 μM). After incubation of the culture for 3 h at 37 °C, the products were isolated and separated by TLC using DCM/ EtOAc (4:1). The amount of estradiol formed was measured and compared to the control cells, where no inhibitor was present. Each assay was carried out in the presence of a positive control (IC50 of 27 nM) to ensure reproducible results were obtained.

[2] = target: T2, 17β-HSD Type 2 (Homo sapiens, UniProt P37059); assay: 17β-HSD2 activity assay in MDA-MB-231 cells (E2 to E1); type: cell-based; set-up: endogenous in cells; host or cells: MDA-MB-231 human breast cancer cells
T2 sequence (P37059 1-387): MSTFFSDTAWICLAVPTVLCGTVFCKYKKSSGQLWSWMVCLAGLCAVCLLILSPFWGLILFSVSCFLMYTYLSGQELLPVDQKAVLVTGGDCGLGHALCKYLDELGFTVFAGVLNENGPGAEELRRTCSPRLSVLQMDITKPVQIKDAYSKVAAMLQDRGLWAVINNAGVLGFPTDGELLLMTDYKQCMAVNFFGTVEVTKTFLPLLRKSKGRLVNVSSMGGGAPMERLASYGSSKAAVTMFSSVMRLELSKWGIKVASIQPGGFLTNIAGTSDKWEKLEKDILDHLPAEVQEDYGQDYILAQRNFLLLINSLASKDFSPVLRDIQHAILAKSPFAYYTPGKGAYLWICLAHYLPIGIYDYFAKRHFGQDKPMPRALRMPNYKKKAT
Experimental: MDA-MB-231 human breast cancer cells in T25 flasks were incubated with 2 nM [^3H]-E2 (41.3 Ci/mmol; PerkinElmer, Beaconsfield, Bucks, UK) in the presence or absence of 10 µM candidate 17β-HSD3 inhibitors. After 3 h at 37 °C, the steroids were isolated from the mixture by extraction with diethyl ether and procedural losses were measured using [^14C]-E1 (5000 dpm; PerkinElmer). Separation of [^3H]-E1 from [^3H]-E2 was achieved using thin layer chromatography, eluting with dichloromethane/ethyl acetate, 4:1 v/v and the amount of [^3H]-E1 produced was calculated from the […] [^3H] counts detected and recovery of [^14C]-E1 (Beckman LS 6000 SC). A positive control was used in this assay (IC50 5.4 μM) to ensure reproducible results were obtained.

[3] = target: T3, 17β-HSD3 (Homo sapiens, UniProt P37058); assay: Assay for 17β-HSD3 activity (TLC assay) in 293-EBNA cells stably transfected with 17β-HSD3; type: cell-based; details: for inhibition at 10 µM: 293-EBNA, mean of at least two measurements, typically SD ±5%
T3 construct: expressed in transfected cells; host or cells: human 293-EBNA cells, stably transfected
T3 sequence (P37058 1-310): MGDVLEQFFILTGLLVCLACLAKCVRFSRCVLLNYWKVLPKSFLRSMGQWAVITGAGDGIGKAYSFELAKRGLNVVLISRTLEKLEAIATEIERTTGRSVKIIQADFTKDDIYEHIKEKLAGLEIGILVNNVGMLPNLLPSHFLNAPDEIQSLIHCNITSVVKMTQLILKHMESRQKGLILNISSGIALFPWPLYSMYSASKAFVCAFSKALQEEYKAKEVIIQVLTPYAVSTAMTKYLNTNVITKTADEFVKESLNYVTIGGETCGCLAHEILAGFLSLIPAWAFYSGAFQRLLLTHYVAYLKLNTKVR
Experimental: Human 293-EBNA cells stably transfected with 17β-HSD3 were plated at 50,000 cells/well in 24 well plates in complete growth medium. After 48 h 2–3 nM [^3H]-androstenedione in assay medium (500 mL DMEM medium with 5 mL 100 × L-glutamine and 5 mL 7.5% sodium bicarbonate solution) was added with or without test compound at 1.5 mL/well (triplicate), and the cells incubated at 37 °C. Two hours later 1 mL medium was removed from each well and placed in a 125 × 16 mm glass test tube containing 25 µL of recovery solution (5000 dpm ^14C-testosterone and 25 µg unlabelled testosterone […], and the tubes vortexed at high speed for 2 × 30 s. After the samples had settled into two phases, they were snap-frozen in a dry ice/methanol bath. The upper organic phase was decanted into 75 × 12 mm tubes and evaporated to dryness under an airstream using a sample concentrator (TECHNE) at 40 °C. The samples were resuspended in ether (8 drops, then a further 3), spotted onto ca 60 F254 20 cm × 20 cm TLC plates and separated using a 4:1 v/v dichloromethane: ethyl acetate mobile phase. After drying the plates, the major spots were marked under a UV lamp, cut out and placed in individual scintillation vials containing 0.5 mL methanol. These were then shaken lightly and allowed to stand for 15 min before adding 10 mL of EcoScintA (scintillation fluid) to each tube along with 0.5 mL assay medium and counted in a scintillation spectrometer (Beckman, High Wycombe, Bucks, UK), using a program for duel [^3H/^14C] isotopes. The number of cells/well was then counted using a Coulter10 counter (Beckman). The inhibitory activity of the test compounds was then assessed by calculating the amount of product formed correcting for crossover between isotope counts, recovery, dilution and non-enzymatic degradation fmol/hr/million cells) with and without inhibitor (% inhibition).

[4] = tested on: human 17β-HSD3; set-up: method as in PMID 22512907; details: whole HEK-293 cells over-expressing human 17β-HSD3; cited from earlier work
[5] = set-up: method as in PMID 22512907; details: given subcutaneously to rats; cited from earlier work
[6] = Compound toxicity, MTS/Alamar Blue proliferation assay, PC-3; type: cell-based; details: human, PC-3 (AR-) prostate cancer cells; PC3 (AR-); read-out: Cytotoxicity IC50 (µM) PC3 (AR-)
Experimental: (§1) AR+ (LNCaP) and AR- (PC-3) PCa cell lines were used as standard lines to determine the cytotoxicity of HSD3 inhibitor compounds. Toxicity was assessed over 96 h in 96 well plates using the standard MTS/Alamar Blue proliferation assay and over longer durations by cell counting methodologies.

[7] = Compound toxicity, MTS/Alamar Blue proliferation assay, LNCaP; type: cell-based; details: human, LNCaP (AR+) prostate cancer cells; read-out: Cytotoxicity IC50 (µM) LNCaP (AR+)
Experimental: as §1

[8] = tested on: androstenedione-stimulated tumour growth; set-up: method as in PMID 18786604, PMID 23132791; details: mouse model; cited from earlier work
[9] = set-up: method as in PMID 18786604, PMID 23132791; details: introduction; cited from earlier work
[10] = tested on: LNCaP and PC-3 PCa cell lines; set-up: method as in PMID 18786604, PMID 23132791; details: introduction; cited from earlier work
[11] = target: T2, 17β-HSD Type 2; details: introduction; cited from earlier work
[12] = TLC assay, 293-EBNA[HSD3] cells, read-out: IC50 (17β-HSD3)

Row | inhibition at 10 µM [2] [%] | inhibition at 10 µM ([3]; TLC assay) [%] | IC50 [3, 12] [nM] | melting point [°C] | inhibition at 10 µM [1] [%] | SMILES | IC50 at 96 h [6] [µM] | IC50 at 96 h [7] [µM] | further results
1 | 15.9 | 87 | 900 | 194 to 196 | – | CC(=O)Nc1ccccc1CNc1ccccc1Oc1ccc(Cl)cc1 [Compound 1, N-(2-([2-(4-Chloro-phenoxy)-phenylamino]-methyl)-phenyl)-acetamide] | – | – | inhibition at 1 µM ([1]; tested at 1 μM): 1.3%
2 | – | 91 | 3900 | 140 to 143 | -2.3 | CC(=O)N1CCC(C(=O)Nc2ccccc2CNc2ccccc2Oc2ccc(Cl)cc2)CC1 [Compound 23, 1-Acetyl-piperidine-4-carboxylic acid (2-[2-(4-chloro-phenoxy)-phenylamino]-methyl-phenyl)-amide] | – | – | –
3 | – | – | – | – | – | C[C@@H]1CN(S(=O)(=O)c2ccccc2C(F)(F)F)[C@@H](C)CN1[C@@]1(O)CC[C@@]2(C)C(CCC3C2CC[C@]2(C)C(=O)CCC32)C1 (stereo partly drawn) [RM-532-105] | – | – | IC50 [4]: 0.005 µM; plasma levels of T and DHT [5]: significantly decreased
4 | 18.4 | – | – | – | 19.6 | CC(=O)N1CCC(CC(=O)N2CCN(C(c3ccc(Cl)cc3)c3ccc(Cl)cc3)C[C@@H]2C(C)(C)C)CC1 [SCH-451659] | 6.8 | 5.5 | IC50 ([3]; Table 10, read-out: Inhibition of 17β-HSD Type 3 (IC50 nM)): 5 nM

Row | SMILES | inhibition at 10 µM [2] [%] | inhibition at 10 µM ([3]; TLC assay) [%] | IC50 [3, 12] [nM] | melting point [°C] | inhibition at 10 µM [1] [%] | IC50 at 96 h [6] [µM] | IC50 at 96 h [7] [µM] | further results
5 | CC(=O)N1CCCC(Nc2ccccc2Oc2ccc(Cl)cc2)c2ccccc21 (stereo not drawn) [STX2171] | 20.3 | – | 200 | – | – | 22 | 15.7 | inhibition of androstenedione-stimulated tumour growth [8]: potent inhibition; androgenicity [9]: non-androgenic; cytotoxicity in words [10]: weakly cytotoxic; selectivity for inhibition of 17β-HSD3 over 17β-HSD2 [11]: selective
